The source of these data is US20250236578A1, “NOVEL CANNABINOID DERIVATIVES” (CANNASOUL ANALYTICS LTD., priority 2021, published 2025).

For one test, the system named is MDA-MB-231 cell line. The test is described as follows: PI-positive cell count, breast cancer cells (IncuCyte). Conditions: for Number of cells (PI-positive): 24 h post-treatment. It is filed as cell-based, Human. As for the experimental part: (§1) The effect of the compounds according to certain embodiments of the present invention as anti-cancer agents was assessed. Human cancer cells of prostate (PC3 cell line), bladder (T24 cell line), or breast (MDA-MB-231 cell line) cancers were thawed and cultured in suitable media at a final concentration of 3×10^5 cells/mL and tested in triplicates. Following 24 hours of incubation, cells were treated with the tested compounds at 2 μg/ml and 4 μg/ml concentrations or controls (cells were grown in starvation medium and treated with Mitomycin C). Mitomycin C is a potent antineoplastic agent that creates DNA cross-linkage resulting in cell arrest and consequently cell death. It is used to treat various types of cancers such as bladder and breast cancers. In in-vitro models, it acts as a proliferation inhibitor as it induces G0-G1 cell growth arrest. The number of cells in each sample was quantified immediately upon treatment (time-point 0) and every 24 hours until full cell confluency was reached. 24 hours post-treatment, PI (1 μg/ml) was added to the treated cells for 1 hour. Using cell-by-cell analysis (IncuCyte™ cell imager), the PI-positive cells were counted and compared to the relative number of cells in the non-treated (NT) wells.

Another test deals with Human adrenal cells. In words: Steroidogenesis: cortisol secretion by Forskolin-stimulated human adrenal cells (ELISA). The format is cell-based. The note with it: 24 h, Forskolin 10 μM. As for the experimental part:
The effect of the compounds according to certain embodiments of the present invention as inhibitors of steroidogenesis was assessed. Human adrenal cells were thawed and cultured in a suitable medium at a final concentration of 5×10^5 cells per mL (performed in triplicates). Following 24 hours of incubation, cells were treated with 10 μM Forskolin. After 48 hours of incubation, cells were treated with controls (1 μM Prochloraz, and 0.2 μg/mL or 1 μg/mL CBD) and compounds according to embodiments of the present invention for 24 hours. Next, supernatants were collected, and the secretion levels of cortisol were measured by ELISA (R&D systems). Optical density was determined by ‘CLARIOStar-plus’® plate-reader. Cortisol concentration (ng/ml) was calculated using a standard curve.
(In general: In an ELISA, binding on a coated surface is turned into a signal by an enzyme label.)

The subject of another test is T24 cell line. The test is described as follows: PI-positive cell count, bladder cancer cells (IncuCyte). It is filed as cell-based, Human. Conditions: for Number of cells (PI-positive): 24 h post-treatment. As for the experimental part: as §1
For another test, the system named is PC3 cell line. The test is described as follows: PI-positive cell count, prostate cancer cells (IncuCyte). The format is cell-based, Human. Conditions: for Number of cells (PI-positive): 24 h post-treatment. As for the experimental part: as §1
The mark [1] stands for this setting: Breast cancer MDA-MB-231, 2 μg/ml.
[2] abbreviates: Breast cancer MDA-MB-231, 4 μg/ml.

Take `C=C(C)[C@@H]1CCC(C)=C[C@H]1c1c(O)cc(CCCCC)cc1O` [CBD, cannabidiol, reference compound]: the “% NT (PI-positive cells relative to non-treated)” value was found to be 175% in the test on MDA-MB-231 cell line (setting [1]); 1325% in the test on MDA-MB-231 cell line (setting [2]); 156% in the test on T24 cell line (Bladder cancer T24, 2 μg/ml); 1794% in the test on T24 cell line (Bladder cancer T24, 4 μg/ml); 90% in the test with PC3 cell line (Prostate cancer PC3, 2 μg/ml); 320% in the test on PC3 cell line (Prostate cancer PC3, 4 μg/ml). The “Number of cells (PI-positive)” value in the test with MDA-MB-231 cell line (setting [1]) worked out at 89.40; in the test with MDA-MB-231 cell line (setting [2]), 675.73; with T24 cell line (Bladder cancer T24, 2 μg/ml), 171.47; with T24 cell line (Bladder cancer T24, 4 μg/ml), 1969.93; with PC3 cell line (Prostate cancer PC3, 2 μg/ml) it was 22.53; in the test on PC3 cell line (Prostate cancer PC3, 4 μg/ml), 80.13. The “Cortisol” value with Human adrenal cells (inhibitor 0.2 μg/mL) was determined as 101 ng/mL; in the test on Human adrenal cells (inhibitor 1 μg/mL), 62 ng/mL. Besides, the “Cortisol % of Forskolin” value in the test on Human adrenal cells (inhibitor 0.2 μg/mL) stood at 95%; with Human adrenal cells (inhibitor 1 μg/mL), 58%.
`CCCCCCc1cc(O)c(C2C=C(C)CCC2C(C)(C)O)c(O)c1` (stereo not drawn) [Formula 1]: in the test with Human adrenal cells (inhibitor 0.2 μg/mL), the “Cortisol” value is recorded as 37 ng/mL and the “Cortisol % of Forskolin” value is on record as 35%. Also, in the test on Human adrenal cells (inhibitor 1 μg/mL), the “Cortisol” value amounted to 24 ng/mL and the “Cortisol % of Forskolin” value came to 22%. In the test on PC3 cell line (Prostate cancer PC3, 2 μg/ml), the “% NT (PI-positive cells relative to non-treated)” value is 216% and the “Number of cells (PI-positive)” value was found to be 54.13. In the test on PC3 cell line (Prostate cancer PC3, 4 μg/ml), the “% NT (PI-positive cells relative to non-treated)” value amounted to 260% and the “Number of cells (PI-positive)” value worked out at 65.27.
`CCCCCc1cc(O)c(C2CC(C)CCC2C(C)(C)O)c(O)c1` (stereo not drawn) [Formula 2]: the entries for the “Cortisol” value in the test with Human adrenal cells (inhibitor 0.2 μg/mL) and in the test with Human adrenal cells (inhibitor 1 μg/mL) were 100 ng/mL and 77 ng/mL, respectively. Besides, the “Cortisol % of Forskolin” value in the test with Human adrenal cells (inhibitor 0.2 μg/mL) is given as 94%; with Human adrenal cells (inhibitor 1 μg/mL), 72%. For the same molecule, the “% NT (PI-positive cells relative to non-treated)” value with PC3 cell line (Prostate cancer PC3, 2 μg/ml) was found to be 307%; in the test with PC3 cell line (Prostate cancer PC3, 4 μg/ml), 363%. Also, the “Number of cells (PI-positive)” value worked out at 76.93 with PC3 cell line (Prostate cancer PC3, 2 μg/ml) and 90.93 with PC3 cell line (Prostate cancer PC3, 4 μg/ml).
For `CCCCCCCc1cc(O)c(C2C=C(C)CCC2C(C)(C)O)c(O)c1` (stereo not drawn) [Formula 4], the “% NT (PI-positive cells relative to non-treated)” value was 120% with MDA-MB-231 cell line (setting [1]); 1417% in the test with MDA-MB-231 cell line (setting [2]); 108% in the test with T24 cell line (Bladder cancer T24, 2 μg/ml); 703% in the test with T24 cell line (Bladder cancer T24, 4 μg/ml); 228% in the test with PC3 cell line (Prostate cancer PC3, 2 μg/ml); 2810% in the test on PC3 cell line (Prostate cancer PC3, 4 μg/ml). The “Number of cells (PI-positive)” value in the test with MDA-MB-231 cell line (setting [1]) amounted to 61.07; in the test with MDA-MB-231 cell line (setting [2]), 722.47; with T24 cell line (Bladder cancer T24, 2 μg/ml) it was 118.20; in the test on T24 cell line (Bladder cancer T24, 4 μg/ml), 771.60; with PC3 cell line (Prostate cancer PC3, 2 μg/ml), 57.27; with PC3 cell line (Prostate cancer PC3, 4 μg/ml), 704.33. Moreover, the “Cortisol” value in the test on Human adrenal cells (inhibitor 0.2 μg/mL) worked out at 38 ng/mL; in the test on Human adrenal cells (inhibitor 1 μg/mL), 35 ng/mL. Besides, the “Cortisol % of Forskolin” value in the test on Human adrenal cells (inhibitor 0.2 μg/mL) worked out at 36%; in the test on Human adrenal cells (inhibitor 1 μg/mL), 32%.
For the molecule `CCCCCCC(C)(C)c1cc(O)c(C2C=C(C)CCC2C(C)(C)O)c(O)c1` (stereo not drawn) [Formula 7], the “% NT (PI-positive cells relative to non-treated)” value with MDA-MB-231 cell line (setting [1]) was found to be 277%; in the test with MDA-MB-231 cell line (setting [2]) it was 2197%; with T24 cell line (Bladder cancer T24, 2 μg/ml), 429%; in the test on T24 cell line (Bladder cancer T24, 4 μg/ml), 1156%; with PC3 cell line (Prostate cancer PC3, 2 μg/ml), 326%; in the test on PC3 cell line (Prostate cancer PC3, 4 μg/ml), 4139%. Moreover, the “Number of cells (PI-positive)” value with MDA-MB-231 cell line (setting [1]) amounted to 141.47; with MDA-MB-231 cell line (setting [2]) it was 1120.53; with T24 cell line (Bladder cancer T24, 2 μg/ml) it was 470.67; in the test with T24 cell line (Bladder cancer T24, 4 μg/ml), 1269.33; in the test with PC3 cell line (Prostate cancer PC3, 2 μg/ml), 81.80; in the test with PC3 cell line (Prostate cancer PC3, 4 μg/ml), 1037.53. Moreover, the “Cortisol” value in the test with Human adrenal cells (inhibitor 0.2 μg/mL) amounted to 39 ng/mL; in the test with Human adrenal cells (inhibitor 1 μg/mL), 47 ng/mL. The “Cortisol % of Forskolin” value was 37% in the test on Human adrenal cells (inhibitor 0.2 μg/mL) and 44% in the test on Human adrenal cells (inhibitor 1 μg/mL).
With `CCCCCc1cc(O)c(C2C=C(C)CCC2C(C)(C)O)c(O)c1C(=O)OC` (stereo not drawn) [Formula 12], in the test with Human adrenal cells (inhibitor 0.2 μg/mL), the “Cortisol” value came out at 43 ng/mL and the “Cortisol % of Forskolin” value came out at 41%. Also, in the test on Human adrenal cells (inhibitor 1 μg/mL), the “Cortisol” value amounted to 45 ng/mL and the “Cortisol % of Forskolin” value is 42%. In addition, in the test with PC3 cell line (Prostate cancer PC3, 2 μg/ml), the “% NT (PI-positive cells relative to non-treated)” value came to 215% and the “Number of cells (PI-positive)” value is listed as 53.93. Also, in the test with PC3 cell line (Prostate cancer PC3, 4 μg/ml), the “% NT (PI-positive cells relative to non-treated)” value is on record as 390% and the “Number of cells (PI-positive)” value worked out at 97.80.
For the molecule `CCCCCc1cc(O)c(C2C=C(C)CCC2C(C)(C)O)c(O)c1C(=O)NCCCN1CCOCC1` (stereo not drawn) [Formula 14], in the test with Human adrenal cells (inhibitor 0.2 μg/mL), the “Cortisol” value turned out to be 41 ng/mL and the “Cortisol % of Forskolin” value was 39%. Moreover, in the test with Human adrenal cells (inhibitor 1 μg/mL), the “Cortisol” value was found to be 45 ng/mL and the “Cortisol % of Forskolin” value was 42%.
On to `CCCN(CCOc1c(Cl)cc(Cl)cc1Cl)C(=O)n1ccnc1` [Prochloraz, reference compound], for which, in the test on Human adrenal cells (inhibitor 1 μg/mL), the “Cortisol” value is reported as 23 ng/mL and the “Cortisol % of Forskolin” value turned out to be 22%.
